Results on seven compounds are retold here after PubChem BioAssay (NCI).

Test systems include ACHN renal; HCC-2998 colon; HS 578T breast; K-562 leukemia; MDA-MB-435; MOLT-4 leukemia; NCI-H226 lung; SF-268 CNS; SNB-19 CNS; SNB-75 CNS.
Holding throughout (experiment): DTP human tumour cell line panel, 48 h

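Interpolation was linear, between the two tested concentrations surrounding the appropriate level; five concentrations were tested over 48 hours in 96-well plates. GI50 = concentration required for 50% inhibition of growth. Definition used: TGI = concentration required for complete inhibition of growth.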

What is called GI50 is the concentration that inhibits growth by half. What is called TGI is the concentration at which net growth stops. For the compound `CNC(=O)c1ccc(Nc2nc(OC3CCCC3)c3c(-c4ccc5nc(C)oc5c4)c[nH]c3n2)c(OC)c1`, the GI50 with ACHN renal was 0.438 µM; in the experiment with HCC-2998 colon it was over 100 µM; in the experiment on HS 578T breast, 31.5 µM; in the experiment with K-562 leukemia it was 0.746 µM; in the experiment with MDA-MB-435 it was over 100 µM; with MOLT-4 leukemia, 1.63 µM. Moreover, the GI50 is 9.04 µM with NCI-H226 lung, over 47.2 µM with SF-268 CNS, 10 µM in the experiment on SNB-19 CNS and 0.474 µM with SNB-75 CNS. Also, the TGI in the experiment on ACHN renal, in the experiment on HCC-2998 colon, with HS 578T breast, with K-562 leukemia, with MDA-MB-435 and in the experiment on MOLT-4 leukemia was over 100 µM throughout. Also, the TGI in the experiment with NCI-H226 lung, in the experiment on SF-268 CNS, with SNB-19 CNS and in the experiment with SNB-75 CNS was over 100 µM each time.

Regarding `O=C1CN2CCC1C/C2=C\c1ccnc2c(Cl)cccc12` (centres undefined), the GI50 in the experiment with ACHN renal is 85.3 µM; with HCC-2998 colon it was over 100 µM; in the experiment with HS 578T breast it was over 100 µM; with K-562 leukemia, 32.2 µM; in the experiment with MDA-MB-435, 75.6 µM; in the experiment with MOLT-4 leukemia it was 44.4 µM. Moreover, the GI50 in the experiment on NCI-H226 lung was 90.5 µM; in the experiment with SF-268 CNS, over 100 µM; with SNB-19 CNS, over 100 µM; in the experiment on SNB-75 CNS, over 100 µM. The TGI in the experiment on ACHN renal, in the experiment with HCC-2998 colon, in the experiment on HS 578T breast, with K-562 leukemia, with MDA-MB-435 and in the experiment with MOLT-4 leukemia was over 100 µM each time. Moreover, the TGI in the experiment with NCI-H226 lung, with SF-268 CNS, with SNB-19 CNS and with SNB-75 CNS was over 100 µM throughout.

With `COc1cc2c(cc1OCCCCCN1CCN(c3cc(=O)oc4c(C)c(OC)ccc34)CC1)N=C[C@@H]1CCCN1C2=O`, the GI50 is 0.0434 µM with ACHN renal; 0.0111 µM in the experiment on HCC-2998 colon; under 0.0198 µM in the experiment with HS 578T breast; under 0.01 µM with K-562 leukemia; under 0.0112 µM in the experiment with MDA-MB-435; under 0.01 µM in the experiment on MOLT-4 leukemia. For the same compound, the GI50 is under 0.01 µM with NCI-H226 lung, under 0.01 µM with SF-268 CNS, under 0.0143 µM with SNB-19 CNS and under 0.0155 µM in the experiment on SNB-75 CNS. Moreover, the TGI is 0.256 µM in the experiment on ACHN renal; 0.0372 µM in the experiment on HCC-2998 colon; 0.791 µM in the experiment with HS 578T breast; 0.316 µM in the experiment with K-562 leukemia; 0.0262 µM with MDA-MB-435; 0.0106 µM in the experiment with MOLT-4 leukemia. Besides, the TGI is 0.0368 µM in the experiment with NCI-H226 lung, 0.318 µM in the experiment with SF-268 CNS, 8.82 µM in the experiment with SNB-19 CNS and under 0.0281 µM in the experiment with SNB-75 CNS.

For `O=C(Nc1nc(-c2ccc(Cl)cc2)cs1)c1ccc(O)c(O)c1`, the GI50 was 3.24 µM in the experiment with ACHN renal; 12 µM in the experiment on HCC-2998 colon; 9.45 µM in the experiment with HS 578T breast; 3.46 µM with K-562 leukemia; 3.18 µM in the experiment with MDA-MB-435; 2.48 µM in the experiment with MOLT-4 leukemia. Further, the GI50 with NCI-H226 lung was 4.65 µM; with SF-268 CNS, 3.54 µM; in the experiment on SNB-19 CNS, 3.82 µM; in the experiment on SNB-75 CNS it was 3.25 µM. The TGI in the experiment with ACHN renal was determined as 12.1 µM; in the experiment on HCC-2998 colon, 26.5 µM; in the experiment on HS 578T breast, 53.9 µM; with K-562 leukemia it was 20 µM; with MDA-MB-435, 14.4 µM; with MOLT-4 leukemia, 12.3 µM. In addition, the TGI in the experiment on NCI-H226 lung turned out to be 19.7 µM; in the experiment with SF-268 CNS, 13.9 µM; in the experiment on SNB-19 CNS, 19.7 µM; in the experiment on SNB-75 CNS, 17.4 µM.

As for `COc1cc2c3c(n(CCCn4ccnc4)c(=O)c2cc1OC)-c1ccccc1C3=O`, the GI50 is under 0.0127 µM in the experiment on ACHN renal; 0.0598 µM in the experiment on HCC-2998 colon; 11.6 µM in the experiment on HS 578T breast; under 0.0155 µM in the experiment with K-562 leukemia; 0.0417 µM in the experiment with MDA-MB-435; under 0.01 µM with MOLT-4 leukemia. The GI50 in the experiment on NCI-H226 lung was 0.05 µM; with SF-268 CNS, under 0.0423 µM; with SNB-19 CNS, under 0.0285 µM; in the experiment with SNB-75 CNS it was 0.0681 µM. Also, the TGI in the experiment with ACHN renal is 0.0486 µM; in the experiment on HCC-2998 colon, 0.504 µM; in the experiment on HS 578T breast, over 100 µM; in the experiment on MDA-MB-435, 0.779 µM; in the experiment on MOLT-4 leukemia, under 0.0167 µM; in the experiment with NCI-H226 lung, 0.983 µM. For the same compound, the TGI was over 100 µM in the experiment on SF-268 CNS, over 69 µM with SNB-19 CNS and 4.33 µM in the experiment on SNB-75 CNS.

With `O=C(Nc1cccc(-c2nc3ccccc3[nH]2)c1)c1cccc(NC(=O)c2ccco2)c1`, the GI50 in the experiment with ACHN renal was 1.68 µM; in the experiment on HCC-2998 colon it was 10 µM; in the experiment on HS 578T breast, 2.2 µM; in the experiment on K-562 leukemia, 2.03 µM; in the experiment with MDA-MB-435, 1.67 µM; with MOLT-4 leukemia it was 2.96 µM. The GI50 was 2.72 µM in the experiment with NCI-H226 lung, 1.99 µM with SF-268 CNS, 2.86 µM in the experiment on SNB-19 CNS and 1.55 µM in the experiment with SNB-75 CNS. Also, the total growth inhibition concentration (TGI) in the experiment with ACHN renal was found to be 3.17 µM; in the experiment with HCC-2998 colon, 21.5 µM; in the experiment on HS 578T breast, 5.97 µM; in the experiment on K-562 leukemia, 4.36 µM; in the experiment on MDA-MB-435, 3.04 µM; with MOLT-4 leukemia it was 12 µM. The TGI came out at 15.9 µM with NCI-H226 lung, 3.78 µM in the experiment with SF-268 CNS, 8.19 µM with SNB-19 CNS and 2.91 µM in the experiment with SNB-75 CNS.

`COc1cc(N)ccc1Nc1c2ccccc2nc2ccccc12`: the GI50 in the experiment with ACHN renal was 3.36 µM; in the experiment on HCC-2998 colon, 15.3 µM; with HS 578T breast, 14.3 µM; in the experiment with K-562 leukemia it was 3.45 µM; in the experiment on MDA-MB-435, 17 µM; with MOLT-4 leukemia, 2.21 µM. Moreover, the GI50 in the experiment with NCI-H226 lung was 2.35 µM; in the experiment with SF-268 CNS, 14.2 µM; in the experiment on SNB-19 CNS it was 15.9 µM; in the experiment with SNB-75 CNS it was 10.8 µM. In addition, the concentration for total growth inhibition (TGI) with ACHN renal was 14.3 µM; in the experiment on HCC-2998 colon it was 30.3 µM; with HS 578T breast, 44.3 µM; with K-562 leukemia it was over 28.8 µM; with MDA-MB-435, 33.2 µM; in the experiment with MOLT-4 leukemia it was over 28.5 µM. The TGI is 10.2 µM with NCI-H226 lung, 35.3 µM with SF-268 CNS, 38.1 µM in the experiment with SNB-19 CNS and 31.2 µM in the experiment on SNB-75 CNS.
